Literature values, collected in US20060246505A1, “Modulation of the synthesis of insulin” (priority 2003, published 2006).

System: signalling pathways that trigger transcription
Settings: glucose-triggered resynthesis of insulin in beta cells; prior-art statement

For C[S+]([O-])c1ccc(-c2nc(-c3ccncc3)c(-c3ccc(F)cc3)[nH]2)cc1 (stereo not shown) [SB 203580], the “inhibition of the signalling pathways that trigger transcription (resynthesis of insulin)” value is listed as “can be inhibited”.
